# Patent US10597388B2, “Pyridazinone herbicides” (FMC CORPORATION, priority 2014, dated 2020)
# What was measured:
# Assay in all cases: Test C greenhouse herbicide test, pre- and postemergence
# Assay type in all cases: in vivo
# [1] = tested on: barnyardgrass (Echinochloa crus-galli)
# From the text: (§1) Seeds of plant species selected from blackgrass (Alopecurus myosuroides), ryegrass, Italian (Italian ryegrass, Lolium multiflorum), wheat (winter wheat, Triticum aestivum), galium (catchweed bedstraw, Galium aparine), corn (Zea mays), large crabgrass, large (large crabgrass, Digitaria sanguinalis), foxtail, giant (giant foxtail, Setaria faberii), johnsongrass (Sorghum halepense), lambsquarters (Chenopodium album), morningglory (Ipomoea coccinea), nutsedge, yellow (yellow nutsedge, Cyperus esculentus), pigweed (Amaranthus retroflexus), ragweed (common ragweed, Ambrosia elatior), soybean (Glycine max), barnyardgrass (Echinochloa crus-galli), oilseed rape (Brassica napus), waterhemp (common waterhemp, Amaranthus rudis), and velvetleaf (Abutilon theophrasti) were planted into a blend of loam soil and sand and treated preemergence with test chemicals formulated in a non-phytotoxic solvent mixture which included a surfactant.
# (§2) At the same time, plants selected from these crop and weed species and also chickweed (common chickweed, Stellaria media), kochia (Kochia scoparia), and oat, wild (wild oat, Avena fatua), were planted in pots containing Redi-Earth® planting medium (Scotts Company, 14111 Scottslawn Road, Marysville, Ohio 43041) comprising spaghnum peat moss, vermiculite, wetting agent and starter nutrients and treated with postemergence applications of test chemicals formulated in the same manner. Plants ranged in height from 2 to 18 cm (1- to 4-leaf stage) for postemergence treatments. Treated plants and controls were maintained in a greenhouse for 13 to 15 d, after which time all species were compared to controls and visually evaluated. Plant response ratings, summarized in Table C, are based on a scale of 0 to 100 where 0 is no effect and 100 is complete control. A dash (-) response means no test result.
# [2] = tested on: blackgrass (Alopecurus myosuroides)
# From the text: as §1, §2
# [3] = tested on: corn (Zea mays)
# From the text: as §1, §2
# [4] = tested on: foxtail, giant (giant foxtail, Setaria faberii)
# From the text: as §1, §2
# [5] = tested on: galium (catchweed bedstraw, Galium aparine)
# From the text: as §1, §2
# [6] = tested on: johnsongrass (Sorghum halepense)
# From the text: as §1, §2
# [7] = tested on: lambsquarters (Chenopodium album)
# From the text: as §1, §2
# [8] = tested on: morningglory (Ipomoea coccinea)
# From the text: as §1, §2
# [9] = tested on: nutsedge, yellow (yellow nutsedge, Cyperus esculentus); conditions: Preemergence; for Plant response rating, Nutsedge, Yellow: scale 0 to 100, 0 is no effect, 100 is complete control
# From the text: as §1, §2
# [10] = tested on: pigweed (Amaranthus retroflexus)
# From the text: as §1, §2
# [11] = tested on: ragweed (common ragweed, Ambrosia elatior)
# From the text: as §1, §2
# [12] = tested on: ryegrass, Italian (Italian ryegrass, Lolium multiflorum)
# From the text: as §1, §2
# [13] = tested on: soybean (Glycine max)
# From the text: as §1, §2
# [14] = tested on: velvetleaf (Abutilon theophrasti)
# From the text: as §1, §2
# [15] = tested on: waterhemp (common waterhemp, Amaranthus rudis)
# From the text: as §1, §2
# [16] = tested on: wheat (winter wheat, Triticum aestivum)
# From the text: as §1, §2
# [17] = Postemergence, 31 g ai/ha, 0 to 100 scale (0 no effect, 100 complete control)
# [18] = Postemergence, 125 g ai/ha, scale 0 to 100, 0 is no effect, 100 is complete control
# [19] = Postemergence, 250 g ai/ha, scale 0 to 100, 0 no effect, 100 complete control, 13 to 15 d
# [20] = Preemergence, 31 g ai/ha, scale 0 to 100, 0 is no effect, 100 is complete control
# [21] = Preemergence, 62 g ai/ha, scale 0 to 100, 0 is no effect, 100 is complete control
# [22] = Preemergence, 125 g ai/ha, scale 0 to 100, 0 is no effect, 100 is complete control
# [23] = Preemergence, 250 g ai/ha, scale 0 to 100 (0 no effect, 100 complete control)
# [24] = postemergence, 62 g ai/ha, scale 0 to 100, 0 no effect, 100 complete control
structure (smiles),measurement,setting,value
"Cc1ccc2sc(C)c(-c3c(O)c(C)nn(C)c3=O)c2c1 [Compound 1, 4-(2,5-dimethylbenzo[b]thien-3-yl)-5-hydroxy-2,6-dimethyl-3(2H)-pyridazinone]",Barnyardgrass plant response rating,[1]; [17],0
same,"Plant response rating, Barnyardgrass",[1]; [18],5
same,"Plant response rating, Barnyardgrass",[1]; [19],5
same,"Plant response rating, Barnyardgrass",[1]; [20],5
same,"Plant response rating, Barnyardgrass",[1]; [21],5
same,"Plant response rating, Barnyardgrass",[1]; [22],25
same,Barnyardgrass plant response rating,[1]; [23],90
same,Barnyardgrass plant response rating,[1]; [24],5
same,Blackgrass plant response rating,[2]; [17],20
same,"Plant response rating, Blackgrass",[2]; [18],60
same,"Plant response rating, Blackgrass",[2]; [19],75
same,"Plant response rating, Blackgrass",[2]; [20],60
same,"Plant response rating, Blackgrass",[2]; [21],90
same,"Plant response rating, Blackgrass",[2]; [22],90
same,Blackgrass plant response rating,[2]; [23],90
same,Blackgrass plant response rating,[2]; [24],50
same,Corn plant response rating,[3]; [17],0
same,"Plant response rating, Corn",[3]; [18],5
same,"Plant response rating, Corn",[3]; [19],40
same,"Plant response rating, Corn",[3]; [20],0
same,"Plant response rating, Corn",[3]; [21],0
same,"Plant response rating, Corn",[3]; [22],0
same,Corn plant response rating,[3]; [23],5
same,Corn plant response rating,[3]; [24],25
same,"Foxtail, Giant plant response rating",[4]; [17],35
same,"Plant response rating, Foxtail, Giant",[4]; [18],60
same,"Plant response rating, Foxtail, Giant",[4]; [19],90
same,"Plant response rating, Foxtail, Giant",[4]; [20],55
same,"Plant response rating, Foxtail, Giant",[4]; [21],75
same,"Plant response rating, Foxtail, Giant",[4]; [22],100
same,"Foxtail, Giant plant response rating",[4]; [23],100
same,"Foxtail, Giant plant response rating",[4]; [24],15
same,Galium plant response rating,[5]; [17],90
same,"Plant response rating, Galium",[5]; [18],95
same,"Plant response rating, Galium",[5]; [19],95
same,"Plant response rating, Galium",[5]; [20],90
same,"Plant response rating, Galium",[5]; [21],100
same,"Plant response rating, Galium",[5]; [22],95
same,Galium plant response rating,[5]; [23],100
same,Galium plant response rating,[5]; [24],95
same,Johnsongrass plant response rating,[6]; [17],0
same,"Plant response rating, Johnsongrass",[6]; [18],0
same,"Plant response rating, Johnsongrass",[6]; [19],15
same,"Plant response rating, Johnsongrass",[6]; [20],0
same,"Plant response rating, Johnsongrass",[6]; [21],5
same,"Plant response rating, Johnsongrass",[6]; [22],5
same,Johnsongrass plant response rating,[6]; [23],5
same,Johnsongrass plant response rating,[6]; [24],0
same,Lambsquarters plant response rating,[7]; [17],85
same,"Plant response rating, Lambsquarters",[7]; [18],100
same,"Plant response rating, Lambsquarters",[7]; [19],100
same,"Plant response rating, Lambsquarters",[7]; [20],80
same,"Plant response rating, Lambsquarters",[7]; [21],95
same,"Plant response rating, Lambsquarters",[7]; [22],100
same,Lambsquarters plant response rating,[7]; [23],100
same,Lambsquarters plant response rating,[7]; [24],100
same,Morningglory plant response rating,[8]; [17],100
same,"Plant response rating, Morningglory",[8]; [18],100
same,"Plant response rating, Morningglory",[8]; [19],100
same,"Plant response rating, Morningglory",[8]; [20],95
same,"Plant response rating, Morningglory",[8]; [21],100
same,"Plant response rating, Morningglory",[8]; [22],100
same,Morningglory plant response rating,[8]; [23],100
same,Morningglory plant response rating,[8]; [24],100
same,"Plant response rating, Nutsedge, Yellow",[9]; 31 g ai/ha,40
same,"Plant response rating, Nutsedge, Yellow",[9]; 62 g ai/ha,35
same,"Plant response rating, Nutsedge, Yellow",[9]; 125 g ai/ha,70
same,"Nutsedge, Yellow plant response rating","[9]; 250 g ai/ha, scale 0 to 100 (0 no effect, 100 complete control)",75
same,Pigweed plant response rating,[10]; [17],95
same,"Plant response rating, Pigweed",[10]; [18],98
same,"Plant response rating, Pigweed",[10]; [19],100
same,"Plant response rating, Pigweed",[10]; [20],100
same,"Plant response rating, Pigweed",[10]; [21],100
same,"Plant response rating, Pigweed",[10]; [22],100
same,Pigweed plant response rating,[10]; [23],100
same,Pigweed plant response rating,[10]; [24],95
same,Ragweed plant response rating,[11]; [17],90
same,"Plant response rating, Ragweed",[11]; [18],95
same,"Plant response rating, Ragweed",[11]; [19],95
same,"Plant response rating, Ragweed",[11]; [20],90
same,"Plant response rating, Ragweed",[11]; [21],80
same,"Plant response rating, Ragweed",[11]; [22],100
same,Ragweed plant response rating,[11]; [23],98
same,Ragweed plant response rating,[11]; [24],95
same,"Ryegrass, Italian plant response rating",[12]; [17],80
same,"Plant response rating, Ryegrass, Italian",[12]; [18],95
same,"Plant response rating, Ryegrass, Italian",[12]; [19],98
same,"Plant response rating, Ryegrass, Italian",[12]; [20],95
same,"Plant response rating, Ryegrass, Italian",[12]; [21],100
same,"Plant response rating, Ryegrass, Italian",[12]; [22],100
same,"Ryegrass, Italian plant response rating",[12]; [23],100
same,"Ryegrass, Italian plant response rating",[12]; [24],90
same,Soybean plant response rating,[13]; [17],0
same,"Plant response rating, Soybean",[13]; [18],5
same,"Plant response rating, Soybean",[13]; [19],5
same,"Plant response rating, Soybean",[13]; [21],0
same,"Plant response rating, Soybean",[13]; [22],0
same,Soybean plant response rating,[13]; [23],0
same,Soybean plant response rating,[13]; [24],0
same,Velvetleaf plant response rating,[14]; [17],80
same,"Plant response rating, Velvetleaf",[14]; [18],95
same,"Plant response rating, Velvetleaf",[14]; [19],100
same,"Plant response rating, Velvetleaf",[14]; [21],90
same,"Plant response rating, Velvetleaf",[14]; [22],100
same,Velvetleaf plant response rating,[14]; [23],98
same,Velvetleaf plant response rating,[14]; [24],85
same,Waterhemp plant response rating,[15]; [17],95
same,"Plant response rating, Waterhemp",[15]; [18],100
same,"Plant response rating, Waterhemp",[15]; [19],100
same,"Plant response rating, Waterhemp",[15]; [21],100
same,"Plant response rating, Waterhemp",[15]; [22],100
same,Waterhemp plant response rating,[15]; [23],100
same,Waterhemp plant response rating,[15]; [24],95
same,Wheat plant response rating,[16]; [17],0
same,"Plant response rating, Wheat",[16]; [18],10
same,"Plant response rating, Wheat",[16]; [19],15
same,"Plant response rating, Wheat",[16]; [21],0
same,"Plant response rating, Wheat",[16]; [22],5
same,Wheat plant response rating,[16]; [23],20
same,Wheat plant response rating,[16]; [24],0
